This is an account of results in PMC11983176 (ACS Omega, 2025).

Like-named read-outs stand apart in the source and are kept apart here.

For orientation: IC50 means the concentration at which inhibition is half-maximal.

The subject of data set [1] is MCF-7. Kind of data set: Cell viability by cell adhesion assay. Type of data set: cell-based, human. Particulars: MCF-7, 500 to 1.95 μM, 45 min.
Data set [2] deals with T47D. Kind of data set: MTT cytotoxicity assay, T47D. It counts as cell-based, human.
A short description of data set [3]: Stability in PBS and Tris-HCl buffer by UV-vis spectroscopy. It counts as physicochemical. Particulars: PBS (0.1 M, pH 7.4) and Tris-HCl, 10% DMSO, room temperature, 5 min to 72 h.
The test system of data set [4] is MCF-7. Kind of data set: MTT cytotoxicity assay, MCF-7. It counts as cell-based, human. Particulars: read-out: Cytotoxicity (IC50) MCF-7, 48 h of treatment. Background: Tetrazolium dyes change colour on reduction, which living cells bring about.

As for `CC/C(=C(\c1ccccc1)c1ccc(OCCN(C)C)cc1)c1ccccc1` [Tamoxifen], the “cell killing in adhesion assay” value in data set [1] is “slightly less initial effects on MCF-7 cells”. Also, in data set [2] (Homo sapiens, T47D, 48 h, read-out: Cytotoxicity (IC50) T47D, MTT assay, 48 h of treatment), the IC50 turned out to be 13 ± 0.71 µM.
Turning to `O=[N+]([O-])[O-].[Ag+]` [silver nitrate], the “stability in buffer solution” value in data set [3] is reported as “precipitates appeared immediately”.
Same read-out and setting: in the case of `[Cl][Ag]` [silver chloride] it was “precipitates appeared immediately”.
As to “1-Cyclopentyl-2,3-dihydro-1H-benzimidazole [compound 1]”, the IC50 in data set [4] is 37 ± 1.93 µM; in data set [2] (read-out: Cytotoxicity (IC50) T47D, MTT assay, 48 h of treatment), 41 ± 2.12 µM.
